# Measured values: patent publication US12240838B2, “Inhibiting agents for Bruton's tyrosine kinase” (BIOGEN MA INC., priority 2019, dated 2025)
# Assays:
# BTK [1] = molecular target: T1, BTK (Homo sapiens (Human), UniProt Q06187); test: In Vitro BTK Kinase Assay: BTK-POLYGAT-LS ASSAY; assay type: biochemical; conditions: ATP 10 μM, polyGAT 100 nM, BTK 0.25 nM, 30 minutes
# Description: The purpose of the BTK in vitro assay is to determine compound potency against BTK through the measurement of IC50. […] The BTK kinase reaction was done in a black 96 well plate (costar 3694). For a typical assay, a 24 μL aliquot of a ATP/peptide master mix (final concentration; ATP 10 μM, polyGAT 100 nM) in kinase buffer (10 mM Tris-HCl pH 7.5, 10 mM MgCl2, 200 μM […], 5 mM DTT, 0.01% Triton X-100, and 0.2 mg/ml casein) is added to each well. Next, […] of a 4-fold, 40× compound titration in 100% DMSO solvent is added, followed by adding 15 μL of BTK enzyme mix in 1× kinase buffer (with a final concentration of 0.25 nM). The assay is incubated for 30 minutes before being stopped with […] of a 50 mM EDTA solution. Aliquots (5 μL) of the kinase reaction are transferred to a low volume white 384 well plate (Coming 3674), and […] of a 2× detection buffer (Invitrogen PV3574, with 4 nM Tb-PY20 antibody, Invitrogen PV3552) is added. The plate is covered and incubated for 45 minutes at room temperature. Time resolved fluorescence (TRF) on Molecular Devices M5 (332 nm excitation; 488 nm emission; 518 nm fluorescein emission) is measured.
# BTK [2] = molecular target: T1, BTK; test: In Vitro PD Assay in Human Whole Blood (pBTK assay); assay type: cell-based; conditions: 37° C. for 30 min, 50% inhibition of ECL signal
# Description: Human heparinized venous blood was purchased from Bioreclamation, Inc. or SeraCare Life Sciences and shipped overnight. Whole blood was aliquoted into 96-well plate and “spiked” with serial dilutions of test compound in DMSO or with DMSO without drug. The final concentration of DMSO in all wells was 0.1%. The plate was incubated at 37° C. for 30 min. Lysis buffer containing protease and phosphatase inhibitors was added to the drug-containing samples and one of the DMSO-only samples (+PPi, high control), while lysis buffer containing protease inhibitors was added to the other DMSO-only samples (−PPi, low control). All of the lysed whole blood samples were subjected to the total BTK capture and phosphotyrosine detection method described in US20160311802, incorporated herein by reference.
# T1 sequence (Q06187 whole entry): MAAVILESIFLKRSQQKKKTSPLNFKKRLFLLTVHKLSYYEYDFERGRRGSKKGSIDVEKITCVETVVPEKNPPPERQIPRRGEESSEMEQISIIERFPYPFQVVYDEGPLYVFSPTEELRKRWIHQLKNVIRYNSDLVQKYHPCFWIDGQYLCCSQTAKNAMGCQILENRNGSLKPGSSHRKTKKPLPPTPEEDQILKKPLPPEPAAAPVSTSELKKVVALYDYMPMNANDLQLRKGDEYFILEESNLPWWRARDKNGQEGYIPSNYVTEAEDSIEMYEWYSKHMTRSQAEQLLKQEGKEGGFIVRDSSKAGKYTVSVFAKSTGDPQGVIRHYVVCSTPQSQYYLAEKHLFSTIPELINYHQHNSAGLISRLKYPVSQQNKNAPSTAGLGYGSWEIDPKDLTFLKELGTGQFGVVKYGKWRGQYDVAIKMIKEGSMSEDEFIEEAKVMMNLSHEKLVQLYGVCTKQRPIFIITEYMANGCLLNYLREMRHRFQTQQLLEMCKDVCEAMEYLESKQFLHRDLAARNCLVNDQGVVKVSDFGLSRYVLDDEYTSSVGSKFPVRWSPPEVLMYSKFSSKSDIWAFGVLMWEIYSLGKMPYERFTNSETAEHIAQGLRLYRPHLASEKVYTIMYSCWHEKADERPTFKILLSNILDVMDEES
SMILES,IC50 (BTK [1]),IC50 (BTK [2])
"CC(C)(C)c1nc(C(=O)NCc2ccc(-c3ccnc(NC(=O)C4CC4)c3)c(F)c2C2CC2)no1 [Compound 33, 5-(tert-butyl)-N-(4-(2-(cyclopropanecarboxamido)pyridin-4-yl)-2-cyclopropyl-3-fluorobenzyl)-1,2,4-oxadiazole-3-carboxamide]",≤ 1 nM,500 to 10000 nM
"Cc1cc(-c2ccnc(NC(=O)C3(F)CC3)c2)ccc1CNC(=O)c1noc(C(C)(C)C)n1 [Compound 82, 5-(tert-butyl)-N-(4-(2-(1-fluorocyclopropane-1-carboxamido)pyridin-4-yl)-2-methylbenzyl)-1,2,4-oxadiazole-3-carboxamide]",1 to 10 nM,500 to 10000 nM
"CC(C)(C)c1noc(C(=O)NCc2ccc(-c3ccnc(NC(=O)C4CC4)c3)cc2C(F)(F)F)n1 [Compound 17, 3-(tert-butyl)-N-(4-(2-(cyclopropanecarboxamido)pyridin-4-yl)-2-(trifluoromethyl)benzyl)-1,2,4-oxadiazole-5-carboxamide]",≤ 1 nM,≤ 100 nM
"Cc1c(CNC(=O)c2noc(C(C)(C)C)n2)ccc(-c2cc(NC(=O)C3CC3)ncc2F)c1F [Compound 57, 5-(tert-butyl)-N-(4-(2-(cyclopropanecarboxamido)-5-fluoropyridin-4-yl)-3-fluoro-2-methylbenzyl)-1,2,4-oxadiazole-3-carboxamide]",≤ 1 nM,500 to 10000 nM
"Cc1cc(-c2cc(NC(=O)C3CC3)ncc2C(F)(F)F)ccc1CNC(=O)c1noc(C(C)(C)C)n1 [Compound 26, 5-(tert-butyl)-N-(4-(2-(cyclopropanecarboxamido)-5-(trifluoromethyl)pyridin-4-yl)-2-methylbenzyl)-1,2,4-oxadiazole-3-carboxamide]",1 to 10 nM,> 10000 nM
"C[C@@H](NC(=O)c1noc(C(C)(C)C)n1)c1cc(F)c(-c2ccnc(NC(=O)C3CC3)c2)cc1Cl [Compound 76, (R)-5-(tert-butyl)-N-(1-(2-chloro-4-(2-(cyclopropanecarboxamido)pyridin-4-yl)-5-fluorophenyl)ethyl)-1,2,4-oxadiazole-3-carboxamide]",≤ 1 nM,500 to 10000 nM
"CC(C)(C)c1nc(C(=O)NCc2ccc(-c3ccnc(NC(=O)C4CC4)c3)c(F)c2Cl)no1 [Compound 14, 5-(tert-butyl)-N-(2-chloro-4-(2-(cyclopropanecarboxamido)pyridin-4-yl)-3-fluorobenzyl)-1,2,4-oxadiazole-3-carboxamide]",≤ 1 nM,≤ 100 nM
"CC(C)(C)c1noc(C(=O)N[C@@H]2CCN(CC(F)(F)F)Cc3cc(-c4ccnc(NC(=O)C5CC5)c4)ccc32)n1 [Compound 92, (R)-3-(tert-butyl)-N-(8-(2-(cyclopropanecarboxamido)pyridin-4-yl)-2-(2,2,2-trifluoroethyl)-2,3,4,5-tetrahydro-1H-benzo[c]azepin-5-yl)-1,2,4-oxadiazole-5-carboxamide]",≤ 1 nM,100 to 500 nM
"Cc1cc(-c2ccnc(NC(=O)C3CC3)c2)c(F)cc1CNC(=O)c1nc(C(C)(C)C)no1 [Compound 12, 3-(tert-butyl)-N-(4-(2-(cyclopropanecarboxamido)pyridin-4-yl)-5-fluoro-2-methylbenzyl)-1,2,4-oxadiazole-5-carboxamide]",≤ 1 nM,100 to 500 nM
"Cc1cc(-c2ccnc(NC(=O)C3CC3)c2)ccc1CNC(=O)c1ncc(C(C)(C)C)o1 [Compound 98, 5-(tert-butyl)-N-(4-(2-(cyclopropanecarboxamido)pyridin-4-yl)-2-methylbenzyl)oxazole-2-carboxamide]",1 to 10 nM,500 to 10000 nM
Cc1cc(-c2ccnc(NC(=O)C3CC34CCC4)c2)ccc1CNC(=O)c1noc(C(C)(C)C)n1 (stereo not shown) [Compound 36],1 to 10 nM,> 10000 nM
"CC(C)(C)c1noc(C(=O)NCc2ccc(-c3ccnc(NC(=O)C4CC4)c3)c(F)c2Cl)n1 [Compound 15, 3-(tert-butyl)-N-(2-chloro-4-(2-(cyclopropanecarboxamido)pyridin-4-yl)-3-fluorobenzyl)-1,2,4-oxadiazole-5-carboxamide]",≤ 1 nM,≤ 100 nM
"Cc1cc(-c2ccnc(NC(=O)C3CC3)c2)ccc1CNC(=O)c1noc(C(C)(C)CF)n1 [Compound 41, N-(4-(2-(cyclopropanecarboxamido)pyridin-4-yl)-2-methylbenzyl)-5-(1-fluoro-2-methylpropan-2-yl)-1,2,4-oxadiazole-3-carboxamide]",≤ 1 nM,500 to 10000 nM
"Cc1cc(-c2ccnc(NC(=O)C3CC3)c2)ccc1[C@@H](C)NC(=O)c1noc(C(C)(C)C)n1 [Compound 19, (R)-5-(tert-butyl)-N-(1-(4-(2-(cyclopropanecarboxamido)pyridin-4-yl)-2-methylphenyl)ethyl)-1,2,4-oxadiazole-3-carboxamide]",≤ 1 nM,≤ 100 nM
"CC(C)(C)c1noc(C(=O)N[C@@H]2CCCCc3cc(-c4ccnc(NC(=O)[C@@H]5C[C@H]5C#N)c4)ccc32)n1 [Compound 51, 3-(tert-butyl)-N-((R)-2-(2-((1R,2R)-2-cyanocyclopropane-1-carboxamido)pyridin-4-yl)-6,7,8,9-tetrahydro-5H-benzo[7]annulen-5-yl)-1,2,4-oxadiazole-5-carboxamide]",≤ 1 nM,100 to 500 nM
"CC(C)(C)c1ncc(C(=O)NCc2ccc(-c3ccnc(NC(=O)C4CC4)c3)c(F)c2C2CC2)o1 [Compound 30, 2-(tert-butyl)-N-(4-(2-(cyclopropanecarboxamido)pyridin-4-yl)-2-cyclopropyl-3-fluorobenzyl)oxazole-5-carboxamide]",1 to 10 nM,> 10000 nM
"CC(C)(C)c1noc(C(=O)NCc2ccc(-c3ccnc(NC(=O)C4CC4)c3)cc2OC(F)(F)F)n1 [Compound 80, 3-(tert-butyl)-N-(4-(2-(cyclopropanecarboxamido)pyridin-4-yl)-2-(trifluoromethoxy)benzyl)-1,2,4-oxadiazole-5-carboxamide]",≤ 1 nM,500 to 10000 nM
"Cc1c(-c2ccnc(NC(=O)C3CC3)c2)ccc(CNC(=O)c2nc(C(C)(C)C)no2)c1F [Compound 100, 3-(tert-butyl)-N-(4-(2-(cyclopropanecarboxamido)pyridin-4-yl)-2-fluoro-3-methylbenzyl)-1,2,4-oxadiazole-5-carboxamide]",≤ 1 nM,500 to 10000 nM
"Cc1c(CNC(=O)c2noc(C(C)(C)C)n2)ccc(-c2ccnc(NC(=O)C3CC3)c2)c1F [Compound 11, 5-(tert-butyl)-N-(4-(2-(cyclopropanecarboxamido)pyridin-4-yl)-3-fluoro-2-methylbenzyl)-1,2,4-oxadiazole-3-carboxamide]",≤ 1 nM,≤ 100 nM
"CC(C)(C)c1noc(C(=O)NCc2ccc(-c3ccnc(NC(=O)C4CC4)c3)c(F)c2C(F)(F)F)n1 [Compound 69, 3-(tert-butyl)-N-(4-(2-(cyclopropanecarboxamido)pyridin-4-yl)-3-fluoro-2-(trifluoromethyl)benzyl)-1,2,4-oxadiazole-5-carboxamide]",≤ 1 nM,100 to 500 nM
"CC(C)(C)c1nc(C(=O)NCc2ccc(-c3ccnc(NC(=O)C4CC4)c3)cc2C(F)(F)F)no1 [Compound 16, 5-(tert-butyl)-N-(4-(2-(cyclopropanecarboxamido)pyridin-4-yl)-2-(trifluoromethyl)benzyl)-1,2,4-oxadiazole-3-carboxamide]",≤ 1 nM,100 to 500 nM
"Cc1cc(-c2ccnc(NC(=O)C3CC3)c2)c(F)cc1[C@@H](C)NC(=O)c1noc(C(C)(C)C)n1 [Compound 85, (R)-5-(tert-butyl)-N-(1-(4-(2-(cyclopropanecarboxamido)pyridin-4-yl)-5-fluoro-2-methylphenyl)ethyl)-1,2,4-oxadiazole-3-carboxamide]",≤ 1 nM,
"Cc1cc(-c2ccnc(NC(=O)C3CC3C(F)(F)F)c2)ccc1CNC(=O)c1noc(C(C)(C)C)n1 (stereo not shown) [Compound 25, 5-(tert-butyl)-N-(2-methyl-4-(2-(2-(trifluoromethyl)cyclopropane-1-carboxamido)pyridin-4-yl)benzyl)-1,2,4-oxadiazole-3-carboxamide]",1 to 10 nM,
"COc1cc(-c2ccnc(NC(=O)C3CC3)c2)ccc1CNC(=O)c1noc(C(C)(C)C)n1 [Compound 87, 5-(tert-butyl)-N-(4-(2-(cyclopropanecarboxamido)pyridin-4-yl)-2-methoxybenzyl)-1,2,4-oxadiazole-3-carboxamide]",≤ 1 nM,
"CC(C)(C)c1nc(C(=O)NCc2cc(F)c(-c3ccnc(NC(=O)C4CC4)c3)cc2C(F)(F)F)no1 [Compound 62, 5-(tert-butyl)-N-(4-(2-(cyclopropanecarboxamido)pyridin-4-yl)-5-fluoro-2-(trifluoromethyl)benzyl)-1,2,4-oxadiazole-3-carboxamide]",,500 to 10000 nM
